Test results from patent publication US11820782B2, “Salt forms of amino pyrazine purine based selective kinase inhibitor” (FTG BIO LLC, priority 2018, dated 2023).
≈ marks a conversion by molar mass, not a printed value. Like-named read-outs stand apart in the source and are kept apart here.

Tests used:
[1] = Qualitative (kinetic/visual) solubility in solvents/media; assay type: physicochemical
Protocol: 2 mg quantity of API was taken in glass vial and small portions of solvent was added with vortexing till the clear solution is obtained (at room temperature or heating up to 50-60° C.).
Weighed quantity of API was taken in glass vial and small portions of solvent was added with vortexing till the clear solution is obtained (at room temperature or heating up to 50-60° C.).

[2] = Equilibrium solubility in pH 6.8 0.01M phosphate buffer by HPLC; assay type: physicochemical; details: pH6.8 0.01M potassium dihydrogen phosphate buffer
[3] = pH vs solubility study (RP-HPLC); assay type: physicochemical
Protocol: In 2 mL volume of buffers (ranging from pH 1.2 to 7.4) and purified water, compound (either free base or esylate or oxalate) was added with increments until the compound doesn't dissolve further in the medium and compound remains undissolved or excess in the solution. The samples were kept for overnight at ambient room temperature to saturate/equilibrate. The dispersions were filtered through 0.45 μm PVDF or nylon membrane filters and the filtrates were analysed using RP-HPLC for determination of solubility of compounds in various buffers and purified water.

[4] = Hygroscopicity (dynamic vapor sorption); assay type: physicochemical
Protocol: Sorption isotherms were obtained using a VTI-SA+-moisture sorption analyzer from TA instruments. The sample temperature was maintained at 25° C. by the instrument controls. The humidity was controlled by mixing the streams of dry and wet nitrogen, with a total flow rate of 200 mL/minute. The weight change of the sample as a function of % RH was constantly monitored by microbalance.
Typically, 5 to 20 mg of the sample was weighed under ambient conditions in a tared mesh stainless steel basket. The sample was loaded and unloaded at 40% RH and 25° C. A moisture sorption isotherm was performed as outlined. The standard isotherm was performed at 25° C. at 10% RH intervals over a 0 to 90% RH range. Sample was dried at 40° C. from ambient room conditions to 0% RH.

[5] = Intravenous and per oral pharmacokinetics in male Balb/c mice; assay type: in vivo; details: for Bioavailability (% F): PO dose (50 mg/kg) vs IV 10 mg/kg
Protocol: The husbandry conditions were maintained as described in animal facility SOPs during the study period. Animals procured were quarantined for 7 days followed by acclimatization for 5 days. The study was carried out for two days. Male Balb/c mice of age 10-12 weeks (18-25 g) and male Sprague Dawley rats 8-10 weeks (220-280 g) were used. The food was with held for a period of 4-12 hr prior to dosing and returned to all animals 4h post dosing and water supplied ad libitum. The doses of FT1518 were as follows: Mice: 10 mg/kg intravenous (i.v) and 50 mg/kg oral (p.o); rat—5 mg/kg intravenous (i.v) and 10 mg/kg oral (p.o). The formulation used in i.v and p.o studies were 10% dimethylsulfoxide (DMSO)+30% polyethyleneglycol 400 (PEG400)+60% water and 0.5% methylcellulose (MC)+0.1% tween 80. Blood was collected at the predetermined time points in mice (cardiac puncture) and Jugular vein (rats) over a period of 24h in eppendorf tubes containing K2EDTA as anticoagulant. The plasma was isolated from the blood and stored at −80° C. until bioanalysis. Species: BALB/C mice Gender: Male Dose: IV (10 mg/kg), Single dose • PO (50 mg/kg), single dose Formulation: • IV—DMSO: PEG400:Water (10:30:60 v/v) • PO— 0.5% methylcellulose and 0.1% Tween 80 in water Sampling Time Points: • IV: 5 min, 30 min, 1 h, 2, 4, 8 and 24 h post dose • PO: 10 min, 30 min, 1 h, 2, 4, 8 and 24 h post dose. PK analysis: Phoenix software (Pharsight product). Noncompartmental Analysis (NCA) was used to estimate the PK parameters. FIG. 56 depicts a pharmacokinetic profile of FT-1518 base in mice. Table 31 summarizes PK parameters used in a pharmacokinetic profile with intravenous dose in mice and Table 32 summarizes PK parameters used in a pharmacokinetic profile with per oral dose in mice.

[6] = Microsomal stability, MLM; assay type: in vitro ADME; details: 3 μM (n = 3), mice liver microsomes
Protocol: (§1) All in vitro experiments like protein binding, microsomal stability, cell cytotoxicity were performed as per study protocols of respective experiments.

Mouse plasma = assay: Plasma protein binding, mouse; assay type: in vitro ADME; details: for % Bound, Mouse plasma: 10 μM (n = 4)
Protocol: as §1

[7] = system: MDA-MB-231 (breast cancer); assay: Anti-proliferative effect, MDA-MB-231; assay type: cell-based
Protocol: as §1

[8] = system: U-87 (giloblastoma, epithelial); assay: Anti-proliferative effect, U-87; assay type: cell-based
Protocol: as §1

[9] = normal room temperature / ambient conditions
[10] = IV dose (10 mg/kg), single dose, male Balb/c mice
[11] = PO dose (50 mg/kg), single dose, male Balb/c mice, 50 mg/kg
[12] = male, Balb/c, mouse, plasma, po, 50 mg/kg, PO dose (50 mg/kg), single dose, male Balb/c mice

Compound: CCC(CC)n1cnc2c(-c3cnc(N)cn3)nc(N3CC4CCC(C3)O4)nc21 [FT-1518 base]
- solubility (descriptive term) ([1]; 0.11N HCl): soluble
- Solubility ([1]; 1,4-dioxane): >100000 µg/mL
- solubility (descriptive term) ([1]; 1,4-dioxane): freely soluble
- Solubility ([1]; Dimethyl sulphoxide): >100000 µg/mL
- solubility (descriptive term) ([1]; Dimethyl sulphoxide): freely soluble
- Solubility ([1]; N,N-dimethyl acetamide): >100000 µg/mL
- solubility (descriptive term) ([1]; N,N-dimethyl acetamide): freely soluble
- Solubility ([1]; N-methyl pyrrolidone): >100000 µg/mL
- solubility (descriptive term) ([1]; N-methyl pyrrolidone): freely soluble
- Solubility ([1]; Purified water): <1000 µg/mL
- Solubility ([1]; Tetrahydrofuran): >100000 µg/mL
- solubility (descriptive term) ([1]; Tetrahydrofuran): freely soluble
- solubility (descriptive term) ([1]; acetone): freely soluble
- solubility (descriptive term) ([1]; acetonitrile): soluble
- Solubility ([1]; dichloromethane): >100000 µg/mL
- solubility (descriptive term) ([1]; dichloromethane): freely soluble
- Solubility ([1]; diethyl ether): <1000 µg/mL
- solubility (descriptive term) ([1]; diethyl ether): insoluble
- Solubility ([1]; ethanol): >100000 µg/mL
- solubility (descriptive term) ([1]; ethanol): freely soluble
- solubility (descriptive term) ([1]; ethyl acetate): soluble
- solubility (descriptive term) ([1]; isopropyl acetate): soluble
- solubility (descriptive term) ([1]; isopropyl alcohol): freely soluble
- Solubility ([1]; methanol): >100000 µg/mL
- solubility (descriptive term) ([1]; methanol): freely soluble
- solubility (descriptive term) ([1]; methyl tertiary butyl ether): slightly soluble
- Solubility ([1]; n-heptane): <1000 µg/mL
- solubility (descriptive term) ([1]; n-heptane): insoluble
- Solubility ([1]; n-hexane): <1000 µg/mL
- solubility (descriptive term) ([1]; n-hexane): insoluble
- solubility (descriptive term) ([1]; purified water, listed as FT1518): practically insoluble
- solubility (descriptive term) ([1]; purified water, listed as FT-1518): insoluble
- solubility (descriptive term) ([1]; toluene): soluble
- Solubility in pH 6.8 buffer ([2]; listed as Free base of FT-1518): 0.02 mg/mL
- Solubility ([3]; Water, overnight, ambient room temperature, listed as Free base): 120 µg/mL (≈ 304 µM)
- Solubility ([3]; pH 1.2 HCl, listed as Free base): >50250 µg/mL
- Solubility ([3]; pH 3.0 Citrate buffer, listed as Free base): 2110 µg/mL (≈ 5350 µM)
- Solubility ([3]; pH 4.0 Acetate buffer, listed as Free base): 340 µg/mL (≈ 862 µM)
- Solubility ([3]; pH 5.0 Acetate buffer, listed as Free base): 140 µg/mL (≈ 355 µM)
- Solubility ([3]; pH 6.8 Phosphate buffer, listed as Free base): 110 µg/mL (≈ 279 µM)
- Solubility ([3]; pH 7.4 Phosphate buffer, listed as Free base): 100 µg/mL (≈ 253 µM)
- hygroscopicity [4, 9]: non-hygroscopic
- hygroscopicity ([4]; sorption cycle 0 to 95% RH at 25° C.): slightly hygroscopic. As there was no
- moisture uptake ([4]; up to 70% RH, 25° C.): There was about <2% moisture uptake up
- clearance as % of mouse liver blood flow ([5]; IV 10 mg/kg, mice): ~30%
- AUC0-∞ [5, 10]: 7637 ± 2021 ng·h/mL
- Cl [5, 10]: 23.3 ± 8.3 mL/min/kg
- Bioavailability (% F) ([5]; male Balb/c mice): 68 % F
- AUC0-∞ [5, 11]: 25801 ± 404 ng·h/mL
- Cmax [5, 11]: 8761 ± 718 ng/mL
- Tmax [5, 11]: 12 min
- Invitro T1/2, MLM [6]: 43 min
- plasma protein binding, mouse plasma (Mouse plasma): ✓ FT1518, FT1518-Esylate and FT1518-Oxalate showed moderate plasma protein binding in both mouse and human plasma
- % Bound, Mouse plasma (Mouse plasma): 91.52%
- IC50 [7]: > 30 µM
- IC50 [8]: > 10 µM

Compound: CCC(CC)n1cnc2c(-c3cnc(N)cn3)nc(N3CC4CCC(C3)O4)nc21 [FT-1518-Esylate]
- Solubility ([1]; N-methyl pyrrolidone, organic solvent or mixture, thermodynamic from solid, N-methyl pyrrolidone, read-out: Solubility): > 100000 µg/mL
- Solubility ([1]; Tetrahydrofuran): <1000 µg/mL
- Solubility ([1]; acetone, organic solvent or mixture, thermodynamic from solid, Acetone, read-out: Solubility): < 1000 µg/mL
- Solubility ([1]; acetonitrile, organic solvent or mixture, thermodynamic from solid, Acetonitrile, read-out: Solubility): > 100000 µg/mL
- Solubility ([1]; dimethyl sulphoxide, organic solvent or mixture, thermodynamic from solid, Dimethyl sulphoxide, read-out: Solubility): > 100000 µg/mL
- Solubility ([1]; ethyl acetate, organic solvent or mixture, thermodynamic from solid, Ethyl acetate, read-out: Solubility): < 1000 µg/mL
- Solubility ([1]; isopropyl alcohol (2-propanol), organic solvent or mixture, thermodynamic from solid, Isopropyl alcohol (2-propanol), read-out: Solubility): 10000 to 25000 µg/mL (≈ 25300 to 63400 µM)
- Solubility ([1]; n-hexane, organic solvent or mixture, thermodynamic from solid, n-hexane, read-out: Solubility): < 1000 µg/mL
- Solubility ([1]; toluene, organic solvent or mixture, thermodynamic from solid, Toluene, read-out: Solubility): < 1000 µg/mL
- Solubility in pH 6.8 buffer [2]: 77.98 mg/mL
- Solubility ([3]; Water, overnight, ambient room temperature, listed as Esylate salt): >539390 µg/mL
- Solubility ([3]; pH 1.2 HCl, listed as Esylate salt): >587070 µg/mL
- Solubility ([3]; pH 3.0 Citrate buffer, listed as Esylate salt): >76380 µg/mL
- Solubility ([3]; pH 4.0 Acetate buffer, listed as Esylate salt): 53250 µg/mL
- Solubility ([3]; pH 5.0 Acetate buffer, listed as Esylate salt): 840 µg/mL
- Solubility ([3]; pH 6.8 Phosphate buffer, listed as Esylate salt): 79080 µg/mL
- Solubility ([3]; pH 7.4 Phosphate buffer, listed as Esylate salt): 40800 µg/mL
- hygroscopicity [4, 9]: non-hygroscopic
- Bioavailability (% F) ([5]; male Balb/c mice): 62 % F
- AUC(0-inf) [5, 12]: 23700 ± 9250 ng·h/mL
- half-life [5, 12]: 204 ± 72 min
- Cmax ([5]; male, Balb/c, mouse, plasma, po, 50 mg/kg, PO dose (50 mg/kg), single dose, male Balb/c mice, read-out: Cmax): 8190 ± 891 ng/mL
- Tmax ([5]; mouse, plasma, PO dose (50 mg/kg), single dose, male Balb/c mice, read-out: Tmax): 18 ± 12 min
- half-life at 3 μM ([6]; mouse, mouse liver microsomes, read-out: Invitro T1/2, MLM): 24 min
- plasma protein binding, mouse plasma (Mouse plasma): ✓ FT1518, FT1518-Esylate and FT1518-Oxalate showed moderate plasma protein binding in both mouse and human plasma
- IC50 ([7]; Homo sapiens): > 10 µM
- IC50 [8]: > 10 µM

Compound: CCC(CC)n1cnc2c(-c3cnc(N)cn3)nc(N3CC4CCC(C3)O4)nc21 [FT-1518-Oxalate]
- Solubility ([1]; Dimethyl sulphoxide): >100000 µg/mL
- Solubility ([1]; N-methyl pyrrolidone): >100000 µg/mL
- Solubility ([1]; dichloromethane): <1000 µg/mL
- Solubility ([1]; ethyl acetate): <1000 µg/mL
- Solubility ([1]; n-hexane): <1000 µg/mL
- Solubility ([1]; toluene): <1000 µg/mL
- Solubility in pH 6.8 buffer [2]: 10.21 mg/mL
- Solubility ([3]; Water, overnight, ambient room temperature, listed as Oxalate salt): 11030 µg/mL
- Solubility ([3]; pH 1.2 HCl, listed as Oxalate salt): >52760 µg/mL
- Solubility ([3]; pH 3.0 Citrate buffer, listed as Oxalate salt): 20250 µg/mL
- Solubility ([3]; pH 4.0 Acetate buffer, listed as Oxalate salt): 1050 µg/mL
- Solubility ([3]; pH 5.0 Acetate buffer, listed as Oxalate salt): 140 µg/mL
- Solubility ([3]; pH 6.8 Phosphate buffer, listed as Oxalate salt): 5280 µg/mL
- Solubility ([3]; pH 7.4 Phosphate buffer, listed as Oxalate salt): 760 µg/mL
- hygroscopicity [4, 9]: non-hygroscopic
- bioavailability in comparison to esylate salt and base ([5]; PO 50 mg/kg, Balb/c male mice): FT-1518-oxalate salt showed high bioavailability in comparison to esylate salt and base.
- Bioavailability (% F) ([5]; male Balb/c mice): 76 % F
- AUC0-∞ [5, 11]: 28876 ± 7762 ng·h/mL
- Cmax [5, 11]: 8444 ± 1473 ng/mL
- T1/2 [5, 11]: 210 ± 114 min
- Tmax [5, 11]: 18 ± 12 min
- Invitro T1/2, MLM [6]: 46 min
- plasma protein binding, mouse plasma (Mouse plasma): ✓ FT1518, FT1518-Esylate and FT1518-Oxalate showed moderate plasma protein binding in both mouse and human plasma
- % Bound, Mouse plasma (Mouse plasma): 91.79%
- IC50 [7]: > 10 µM
- IC50 [8]: > 10 µM
